Assay results published in ChEMBL document CHEMBL1201862, “PubChem BioAssay data set” (2004).
Activity calls are given as the source filed them.

Key:
SUMO-activating enzyme = SUMO-activating enzyme (Homo sapiens, UniProt Q9UBT2); test: SUMOylation inhibitor hit validation, confirmation, SUMOylation inhibitor project, biochemical, AlphaScreen (AID 2018); type: functional
Prothrombin = Prothrombin (Homo sapiens, UniProt P00734); test: Thrombin 1536 HTS Dose Response Confirmation. [Related pubchem assays: 1046 (Thrombin 1536 HTS; hits were confirmed in this assay)]; type: functional
Leucine aminopeptidase = molecular target: T1, Leucine aminopeptidase (Plasmodium falciparum 3D7, UniProt Q8IL11); test: P. falciparum M17LAP inhibitors, primary screen, biochemical, fluorogenic H-Leu-NHMec substrate, 1536-well (AID 1619); type: functional
T1 sequence (Q8IL11 whole entry): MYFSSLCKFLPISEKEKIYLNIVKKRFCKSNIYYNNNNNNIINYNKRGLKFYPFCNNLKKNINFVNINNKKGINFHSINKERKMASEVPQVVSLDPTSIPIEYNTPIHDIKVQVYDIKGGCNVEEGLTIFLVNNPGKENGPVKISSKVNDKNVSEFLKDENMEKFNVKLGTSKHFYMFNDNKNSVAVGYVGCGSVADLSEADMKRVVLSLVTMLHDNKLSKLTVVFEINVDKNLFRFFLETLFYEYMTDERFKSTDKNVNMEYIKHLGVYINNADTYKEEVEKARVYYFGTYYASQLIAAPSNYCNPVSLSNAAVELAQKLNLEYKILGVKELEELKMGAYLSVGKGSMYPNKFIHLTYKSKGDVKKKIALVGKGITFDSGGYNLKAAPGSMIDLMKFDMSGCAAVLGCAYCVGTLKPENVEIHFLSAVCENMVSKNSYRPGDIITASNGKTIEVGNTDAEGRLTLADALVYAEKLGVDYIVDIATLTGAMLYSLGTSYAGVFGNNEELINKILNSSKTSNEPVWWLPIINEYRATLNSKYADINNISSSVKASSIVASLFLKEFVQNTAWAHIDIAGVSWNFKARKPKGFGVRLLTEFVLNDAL

[1] = molecular target: DNA dC->dU-editing enzyme APOBEC-3G (Homo sapiens, UniProt Q9HC16); test: Dose Response confirmation of small molecule APOBEC3G DNA Deaminase Inhibitors via a fluorescence-based single-stranded DNA deaminase assay. [Related pubchem assays (depositor defined):AID493012, AID493028]; type: functional
Chain of DNA dC->dU-editing enzyme APOBEC-3G (Q9HC16 whole entry): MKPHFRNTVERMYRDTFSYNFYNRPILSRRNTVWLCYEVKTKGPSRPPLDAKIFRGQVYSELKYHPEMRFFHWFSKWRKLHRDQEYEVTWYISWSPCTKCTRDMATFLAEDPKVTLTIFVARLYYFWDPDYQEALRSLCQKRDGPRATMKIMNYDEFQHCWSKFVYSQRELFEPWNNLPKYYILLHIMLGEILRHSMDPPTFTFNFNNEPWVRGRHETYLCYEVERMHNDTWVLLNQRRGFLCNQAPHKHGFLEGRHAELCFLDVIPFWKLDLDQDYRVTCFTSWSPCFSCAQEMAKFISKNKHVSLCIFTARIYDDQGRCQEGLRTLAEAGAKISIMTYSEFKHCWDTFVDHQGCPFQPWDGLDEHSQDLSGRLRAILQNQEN

H4 = test: Luminescence Cell-Based Dose Response HTS to Identify Activators of 5'UTR Stem-Loop Driven Prion Protein mRNA Translation in H4 Neuroglioblastoma Cells. [Related pubchem assays: 1829 (Project Summary), 1814 (Primary HTS)]; type: functional; details: Homo sapiens
[2] = Luminescence Cell-Based Dose Confirmation HTS to Identify Activators of 5'UTR Stem-Loop Driven Alpha-Synuclein mRNA Translation in H4 Neuroglioblastoma Cells. [Related pubchem assays: 1829 (Project Summary), 1814 (Primary HTS)]; type: functional
[3] = Luminescence Cell-Based Dose Response HTS to Identify Activators of Luciferase Translation or Activity in H4 […] Cells. [Related pubchem assays: 1829 (Project Summary), 1814 (Primary HTS)]; type: functional
[4] = molecular target: T2, Histone-lysine N-methyltransferase NSD2 (Homo sapiens, UniProt O96028); type: biochemical
T2 sequence (O96028 whole entry): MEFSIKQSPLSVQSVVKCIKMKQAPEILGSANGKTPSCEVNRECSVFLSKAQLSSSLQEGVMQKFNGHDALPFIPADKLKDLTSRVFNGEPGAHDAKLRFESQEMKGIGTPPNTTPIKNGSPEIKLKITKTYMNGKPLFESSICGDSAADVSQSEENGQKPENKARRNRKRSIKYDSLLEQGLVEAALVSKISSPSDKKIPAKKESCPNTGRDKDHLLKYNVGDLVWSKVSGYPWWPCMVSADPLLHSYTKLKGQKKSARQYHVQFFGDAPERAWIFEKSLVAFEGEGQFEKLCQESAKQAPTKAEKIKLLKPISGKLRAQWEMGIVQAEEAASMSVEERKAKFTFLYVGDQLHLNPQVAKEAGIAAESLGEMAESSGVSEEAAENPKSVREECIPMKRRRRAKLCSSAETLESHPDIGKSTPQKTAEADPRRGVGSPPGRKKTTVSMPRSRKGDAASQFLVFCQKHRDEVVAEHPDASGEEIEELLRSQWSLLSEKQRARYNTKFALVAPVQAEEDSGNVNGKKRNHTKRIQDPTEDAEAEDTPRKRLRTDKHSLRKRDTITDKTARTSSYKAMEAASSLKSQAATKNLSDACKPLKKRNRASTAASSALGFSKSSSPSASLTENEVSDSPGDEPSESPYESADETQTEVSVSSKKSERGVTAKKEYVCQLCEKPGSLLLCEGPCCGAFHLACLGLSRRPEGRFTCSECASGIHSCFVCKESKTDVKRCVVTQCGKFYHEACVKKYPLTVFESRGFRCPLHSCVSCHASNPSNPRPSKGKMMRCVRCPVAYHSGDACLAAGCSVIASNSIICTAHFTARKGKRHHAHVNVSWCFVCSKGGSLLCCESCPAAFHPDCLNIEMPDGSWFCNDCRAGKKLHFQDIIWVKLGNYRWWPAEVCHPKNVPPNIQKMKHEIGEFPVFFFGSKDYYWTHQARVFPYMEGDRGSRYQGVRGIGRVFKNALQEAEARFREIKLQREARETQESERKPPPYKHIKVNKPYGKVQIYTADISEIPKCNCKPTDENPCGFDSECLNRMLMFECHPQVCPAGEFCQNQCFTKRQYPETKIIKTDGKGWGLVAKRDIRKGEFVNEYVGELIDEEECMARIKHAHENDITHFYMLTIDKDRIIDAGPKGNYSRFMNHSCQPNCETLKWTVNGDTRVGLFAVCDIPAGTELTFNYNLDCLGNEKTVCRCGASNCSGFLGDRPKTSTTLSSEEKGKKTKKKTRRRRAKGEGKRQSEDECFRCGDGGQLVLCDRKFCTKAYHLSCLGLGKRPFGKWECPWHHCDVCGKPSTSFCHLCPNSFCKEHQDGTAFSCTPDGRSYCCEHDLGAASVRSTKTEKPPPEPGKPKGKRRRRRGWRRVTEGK

[5] = molecular target: T3, Corticotropin-releasing factor receptor 2/Corticotropin-releasing factor-binding protein (Homo sapiens, UniProt P24387+Q13324); test: Dose Response confirmation of uHTS hits for small molecule antagonists of the CRF-binding protein and CRF-R2 receptor complex.; type: functional; details: read-out: IC50_Mean
T3 sequence (Q13324 whole entry): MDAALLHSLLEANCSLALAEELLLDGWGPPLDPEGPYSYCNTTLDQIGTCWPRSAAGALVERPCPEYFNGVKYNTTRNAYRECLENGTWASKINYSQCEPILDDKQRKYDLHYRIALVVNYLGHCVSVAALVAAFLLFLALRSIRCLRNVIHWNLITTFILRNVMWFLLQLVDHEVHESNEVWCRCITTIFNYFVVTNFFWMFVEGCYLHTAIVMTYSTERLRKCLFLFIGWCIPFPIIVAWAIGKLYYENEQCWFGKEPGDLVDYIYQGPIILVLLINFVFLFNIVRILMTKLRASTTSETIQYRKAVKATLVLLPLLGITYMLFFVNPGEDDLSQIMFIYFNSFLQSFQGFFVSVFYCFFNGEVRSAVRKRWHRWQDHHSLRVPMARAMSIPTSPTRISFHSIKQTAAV
T3 sequence (P24387 whole entry): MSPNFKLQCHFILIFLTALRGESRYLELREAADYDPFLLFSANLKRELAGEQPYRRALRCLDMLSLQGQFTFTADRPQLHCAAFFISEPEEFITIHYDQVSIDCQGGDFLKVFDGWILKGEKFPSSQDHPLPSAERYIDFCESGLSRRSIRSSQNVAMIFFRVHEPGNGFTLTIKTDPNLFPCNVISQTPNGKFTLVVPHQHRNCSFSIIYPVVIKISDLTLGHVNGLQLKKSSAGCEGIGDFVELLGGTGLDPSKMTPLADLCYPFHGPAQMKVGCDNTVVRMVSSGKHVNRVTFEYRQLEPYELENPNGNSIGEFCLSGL

[6] = molecular target: T3, Corticotropin-releasing factor receptor 2/Corticotropin-releasing factor-binding protein; test: activators of CRF receptor 2 with binding protein – uHTS hits, confirmation (AID 602473); type: functional; details: read-out: EC50_Mean
[7] = cytotoxicity in HEK-293T cells, dose response, cytotoxicity control for BCR NF-kB inhibitor project, luminescence, B-cell screen hits (AID 489021); type: functional, cell-based;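 further: HEK-293T cells carrying an NF-kB luciferase reporter; cells exposed to compound for about 14 hours before viability readout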
HEK293 = test: inhibitors of LMP1-driven NF-kB reporter, dose response, cell-based, HEK293, luciferase, cherry-pick (AID 588343); type: functional; details: Homo sapiens
[8] = cytotoxicity toward NIH3T3 fibroblasts, dose response, counter-screen, cell-based, ATP luminescence, mouse fibroblasts (AID 2010); type: functional;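 further: cells exposed to compound for about 90 hours before reading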
[9] = inhibitors of intracellular T. cruzi replication, confirmation, NIH3T3 host cells, beta-gal luminescence (AID 2044); type: functional, cell-based;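 further: intracellular parasites grown in NIH/3T3 mouse fibroblasts as host cells; luminescent beta-galactosidase reporter signal from transgenic T. cruzi replicating inside host cells; inhibitors lower the luminescence signal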
[10] = molecular target: Glucose-6-phosphate 1-dehydrogenase (Homo sapiens, UniProt P11413); test: human G6PD enzyme inhibitors, dose response, selectivity assay for P. falciparum G6PD inhibitor project, biochemical, fluorescence (AID 504792); type: functional
Chain of Glucose-6-phosphate 1-dehydrogenase (P11413 whole entry): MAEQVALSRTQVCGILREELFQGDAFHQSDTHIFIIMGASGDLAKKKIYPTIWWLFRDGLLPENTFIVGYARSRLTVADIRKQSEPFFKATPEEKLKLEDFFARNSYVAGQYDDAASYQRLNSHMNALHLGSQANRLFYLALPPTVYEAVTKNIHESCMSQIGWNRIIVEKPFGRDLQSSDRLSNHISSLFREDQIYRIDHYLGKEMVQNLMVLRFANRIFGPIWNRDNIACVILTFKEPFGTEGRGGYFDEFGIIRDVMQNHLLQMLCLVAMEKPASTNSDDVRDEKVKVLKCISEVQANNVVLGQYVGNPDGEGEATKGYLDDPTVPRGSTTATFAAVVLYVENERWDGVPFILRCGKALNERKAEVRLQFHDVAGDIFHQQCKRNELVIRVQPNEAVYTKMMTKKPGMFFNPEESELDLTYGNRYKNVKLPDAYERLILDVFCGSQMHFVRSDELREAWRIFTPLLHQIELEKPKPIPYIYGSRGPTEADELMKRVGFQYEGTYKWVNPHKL

[11] = control 3'UTR Renilla luciferase suppression, dose response, counter-screen for Shn3 inhibitor project, cell-based, Clone20-Shn3RL, cherry-picked (AID 624133); type: functional
Fatty acid synthase [12] = molecular target: T4, Fatty acid synthase (Homo sapiens, UniProt P49327); test: FAS thioesterase domain inhibitors, dose response, biochemical, endpoint fluorescence intensity, uHTS hits (AID 624327); type: functional;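 further: fluorescence from hydrolysis of an O-methyl fluorescein acyl ester substrate by the enzyme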
T4 sequence (P49327 whole entry, the tested form may be a part): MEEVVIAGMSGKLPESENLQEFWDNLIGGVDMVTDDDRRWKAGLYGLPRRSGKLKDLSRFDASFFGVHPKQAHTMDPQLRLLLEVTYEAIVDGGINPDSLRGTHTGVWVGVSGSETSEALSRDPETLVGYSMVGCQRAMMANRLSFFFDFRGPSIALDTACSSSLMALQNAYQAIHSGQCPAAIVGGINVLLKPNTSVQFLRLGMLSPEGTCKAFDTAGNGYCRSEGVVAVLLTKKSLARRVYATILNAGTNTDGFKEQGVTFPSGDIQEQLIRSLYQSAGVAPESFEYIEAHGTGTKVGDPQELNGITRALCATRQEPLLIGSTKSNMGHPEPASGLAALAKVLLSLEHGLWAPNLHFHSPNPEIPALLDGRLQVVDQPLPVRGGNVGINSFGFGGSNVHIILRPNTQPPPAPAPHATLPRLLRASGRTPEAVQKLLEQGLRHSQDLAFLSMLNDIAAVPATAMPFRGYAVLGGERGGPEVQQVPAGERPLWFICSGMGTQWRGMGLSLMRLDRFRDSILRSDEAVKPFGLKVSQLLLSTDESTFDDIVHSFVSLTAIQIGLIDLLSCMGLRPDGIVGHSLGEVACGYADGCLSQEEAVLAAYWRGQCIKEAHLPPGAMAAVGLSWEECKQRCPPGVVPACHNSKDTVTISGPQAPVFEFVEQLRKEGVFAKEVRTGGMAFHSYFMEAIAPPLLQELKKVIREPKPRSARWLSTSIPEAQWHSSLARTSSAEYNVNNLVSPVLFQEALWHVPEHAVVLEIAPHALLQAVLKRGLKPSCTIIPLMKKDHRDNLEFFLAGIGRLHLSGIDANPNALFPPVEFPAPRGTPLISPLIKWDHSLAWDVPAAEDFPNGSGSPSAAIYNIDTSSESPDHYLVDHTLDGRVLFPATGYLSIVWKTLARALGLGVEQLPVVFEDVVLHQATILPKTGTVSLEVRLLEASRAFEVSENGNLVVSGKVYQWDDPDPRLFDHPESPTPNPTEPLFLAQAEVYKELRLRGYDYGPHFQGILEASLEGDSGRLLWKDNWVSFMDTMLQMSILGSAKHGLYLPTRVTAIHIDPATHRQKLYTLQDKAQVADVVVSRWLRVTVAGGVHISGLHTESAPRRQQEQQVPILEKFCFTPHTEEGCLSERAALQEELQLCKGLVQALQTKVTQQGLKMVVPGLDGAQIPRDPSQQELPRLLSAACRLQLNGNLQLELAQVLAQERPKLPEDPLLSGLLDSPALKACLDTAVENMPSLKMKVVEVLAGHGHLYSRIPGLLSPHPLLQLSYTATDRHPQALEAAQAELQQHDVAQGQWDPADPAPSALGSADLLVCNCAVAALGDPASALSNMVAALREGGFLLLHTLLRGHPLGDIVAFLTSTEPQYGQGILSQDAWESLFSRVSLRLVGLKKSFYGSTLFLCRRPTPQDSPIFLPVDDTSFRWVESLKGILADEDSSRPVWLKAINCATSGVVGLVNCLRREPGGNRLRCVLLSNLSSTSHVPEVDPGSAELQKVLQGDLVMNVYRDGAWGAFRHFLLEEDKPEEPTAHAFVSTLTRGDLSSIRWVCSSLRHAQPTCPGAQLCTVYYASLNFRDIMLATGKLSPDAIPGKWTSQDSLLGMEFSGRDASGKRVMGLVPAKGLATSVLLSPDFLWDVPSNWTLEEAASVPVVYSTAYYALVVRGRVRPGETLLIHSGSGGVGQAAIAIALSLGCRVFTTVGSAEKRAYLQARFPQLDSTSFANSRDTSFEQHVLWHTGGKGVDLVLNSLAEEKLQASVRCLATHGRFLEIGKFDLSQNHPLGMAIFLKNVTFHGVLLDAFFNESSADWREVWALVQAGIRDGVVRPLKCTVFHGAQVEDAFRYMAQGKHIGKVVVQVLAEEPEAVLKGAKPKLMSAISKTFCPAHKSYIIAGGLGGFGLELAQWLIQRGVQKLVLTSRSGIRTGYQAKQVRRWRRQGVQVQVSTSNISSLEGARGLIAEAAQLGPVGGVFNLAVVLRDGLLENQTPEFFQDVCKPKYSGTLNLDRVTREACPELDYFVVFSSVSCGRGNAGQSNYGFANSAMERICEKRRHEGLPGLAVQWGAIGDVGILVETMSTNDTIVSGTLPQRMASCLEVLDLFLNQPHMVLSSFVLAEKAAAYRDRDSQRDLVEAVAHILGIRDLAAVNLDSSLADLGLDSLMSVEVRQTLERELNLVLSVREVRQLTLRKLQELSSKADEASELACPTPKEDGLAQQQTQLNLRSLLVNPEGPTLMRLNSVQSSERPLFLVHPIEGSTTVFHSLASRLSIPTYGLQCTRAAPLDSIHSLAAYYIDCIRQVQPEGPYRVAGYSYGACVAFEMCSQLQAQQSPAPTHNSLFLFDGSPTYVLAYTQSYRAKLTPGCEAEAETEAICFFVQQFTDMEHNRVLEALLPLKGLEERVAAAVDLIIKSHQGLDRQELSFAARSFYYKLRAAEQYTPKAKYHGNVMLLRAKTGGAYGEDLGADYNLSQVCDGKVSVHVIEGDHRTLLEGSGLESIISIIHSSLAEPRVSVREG

Fatty acid synthase [13] = molecular target: T4, Fatty acid synthase; test: FAS thioesterase domain inhibitors, dose response, biochemical, kinetic fluorescence intensity (AID 624326); type: functional;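 further: rate of fluorescence rise from hydrolysis of a fluorogenic O-methyl fluorescein ester substrate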
[14] = Shn3 3'UTR reporter inhibitors, dose response, cell-based, Clone20 osteoblasts, firefly luciferase, cherry-picked (AID 624132); type: functional;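 further: firefly luciferase luminescence from reporter carrying the Shn3 3'UTR in osteoblasts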
[15] = HepG2 cell cytotoxicity, dose response, cytotoxicity control for Shn3 inhibitor project, CellTiter-Glo, cherry-picked (AID 624134); type: functional, cell-based
Cytochrome P450 2C9 = Cytochrome P450 2C9 (Homo sapiens, UniProt P11712)
Chain of Cytochrome P450 2C9 (P11712 whole entry): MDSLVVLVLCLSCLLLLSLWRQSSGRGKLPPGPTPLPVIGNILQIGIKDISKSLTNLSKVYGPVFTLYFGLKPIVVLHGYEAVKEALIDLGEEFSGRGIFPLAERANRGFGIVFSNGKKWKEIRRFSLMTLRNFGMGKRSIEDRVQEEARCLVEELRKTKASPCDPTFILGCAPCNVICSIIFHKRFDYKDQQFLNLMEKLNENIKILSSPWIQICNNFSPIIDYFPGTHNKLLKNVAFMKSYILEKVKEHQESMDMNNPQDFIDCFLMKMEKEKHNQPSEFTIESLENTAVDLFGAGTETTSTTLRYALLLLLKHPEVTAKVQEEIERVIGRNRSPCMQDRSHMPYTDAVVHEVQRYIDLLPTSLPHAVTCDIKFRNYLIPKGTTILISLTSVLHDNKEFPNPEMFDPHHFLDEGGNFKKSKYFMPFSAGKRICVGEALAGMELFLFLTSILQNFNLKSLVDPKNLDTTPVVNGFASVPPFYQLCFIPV

[16] = HEp-2 cell cytotoxicity, dose response, cytotoxicity control for RSV inhibitor project, HTS (AID 2410); type: functional; details: human respiratory syncytial virus

Chain of SUMO-activating enzyme (Q9UBE0 whole entry): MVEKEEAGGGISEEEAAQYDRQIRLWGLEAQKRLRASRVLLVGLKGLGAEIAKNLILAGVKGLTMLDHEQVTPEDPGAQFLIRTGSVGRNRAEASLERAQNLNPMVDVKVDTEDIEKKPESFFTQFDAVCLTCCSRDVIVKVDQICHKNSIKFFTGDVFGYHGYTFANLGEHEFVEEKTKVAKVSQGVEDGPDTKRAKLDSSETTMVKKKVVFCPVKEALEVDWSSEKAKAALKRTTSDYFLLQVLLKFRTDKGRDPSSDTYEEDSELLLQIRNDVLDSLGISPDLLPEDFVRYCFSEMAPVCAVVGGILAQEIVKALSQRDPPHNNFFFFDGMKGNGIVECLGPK
Chain of SUMO-activating enzyme (Q9UBT2 whole entry): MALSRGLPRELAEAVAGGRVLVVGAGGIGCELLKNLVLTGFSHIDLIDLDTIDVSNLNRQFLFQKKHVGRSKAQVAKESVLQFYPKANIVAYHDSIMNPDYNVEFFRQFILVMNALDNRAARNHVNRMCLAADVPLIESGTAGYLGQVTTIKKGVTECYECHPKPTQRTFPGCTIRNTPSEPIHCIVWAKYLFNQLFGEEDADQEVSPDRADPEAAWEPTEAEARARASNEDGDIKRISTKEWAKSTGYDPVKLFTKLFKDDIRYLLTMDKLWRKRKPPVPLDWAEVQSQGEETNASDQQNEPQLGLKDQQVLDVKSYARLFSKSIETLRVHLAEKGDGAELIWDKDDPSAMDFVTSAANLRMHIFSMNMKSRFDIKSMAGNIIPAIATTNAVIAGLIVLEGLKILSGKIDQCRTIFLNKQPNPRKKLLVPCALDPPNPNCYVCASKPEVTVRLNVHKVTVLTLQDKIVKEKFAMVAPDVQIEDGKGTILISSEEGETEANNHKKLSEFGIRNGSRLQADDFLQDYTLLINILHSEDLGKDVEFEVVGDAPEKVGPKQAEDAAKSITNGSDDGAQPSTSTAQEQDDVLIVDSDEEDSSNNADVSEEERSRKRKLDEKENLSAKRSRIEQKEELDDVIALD

For `Cc1ccc2c(SCC(=O)NCc3ccco3)nc(-c3ccc(F)cc3)nc2c1`, the IC50 (SUMO-activating enzyme) was 50.1 µM (active).
For `CC(C(=O)NCc1ccccn1)N1C(=O)c2ccccc2C1=O` (stereo not drawn), the IC50 (Prothrombin) was > 50 µM (not active).
For `O=C(COC(=O)CCc1ccccc1)Nc1ncc(Cl)cc1Cl`, the IC50 (Prothrombin) was 8.03 µM (active).
For `Cc1sc(NC(=O)C2CCCCC2C(=O)O)c(C(N)=O)c1-c1ccccc1` (stereo not drawn), the IC50 (Leucine aminopeptidase) was 11 µM (active).
In the case of `O=C(NC1CCCCCC1)c1ccc[nH]c1=S`, the IC50 [1] is reported as 21.9 µM (active).
With `CCOC(=O)c1cnn(-c2ncnc3sc4c(c23)CCC4)c1N` the EC50 (H4) was 11.9 µM (active), the EC50 [2] was 13.8 µM (active) and the IC50 (Prothrombin) was > 50 µM (not active). For the same compound, the EC50 [3] was 29.1 µM (active).
In the case of `CN(C)CCNc1ncnc2oc(-c3ccccc3)c(-c3ccccc3)c12`, the AC50 [4] is reported as > 20 µM (inactive).
With `COc1ccccc1NC(=O)c1sc2nc(-c3ccco3)ccc2c1N` the IC50 (SUMO-activating enzyme) was 45.2 µM (active).
With `COc1ccnc(CSC(=N)Nc2ccc(F)cc2)c1` the IC50 [5] was > 47.1 µM (inactive) and the EC50 [6] was 32 µM (active).
With `CCOC(=O)c1c(N)sc(C(=O)N2CCCCC2)c1C` the IC50 [5] was > 47.1 µM (inactive) and the EC50 [6] was > 53 µM (inactive).
With `Cc1ccc(/C=C2\SC(=S)N(CCCC(=O)NC3CCCC3)C2=O)cc1` the IC50 [7] was > 80 µM (inactive).
For `C=CCNC(=O)C(C#N)c1nc2ccccc2nc1N1CCN(Cc2ccccc2)CC1` (stereo not drawn), the IC50 (Prothrombin) was > 50 µM (inconclusive).
With `CC(C)(C)c1ccc(C(=O)Nc2nnc(SCC(=O)NCC3CCCO3)s2)cc1` (stereo not drawn) the AC50 (HEK293) was 2.11 µM (active).
For `CCCc1cc(=O)c2c(O)ccc(OC)c2o1`, the AC50 (HEK293) was > 350 µM (inactive).
In the case of `COc1ccc(CNc2nc(-c3cccnc3)nn2C(=O)CC(C)C)cc1`, the IC50 (Prothrombin) is reported as 0.336 µM (active).
For `CC/C(NCCCN(CC)CC)=C1/C(=O)NC(=O)N(C2CCCCC2)C1=O`, the AC50 [4] was > 20 µM (inactive), the EC50 [8] was > 60 µM (not active) and the EC50 [9] was 0.171 µM (active).
For `Cc1c(CC(=O)NCCCC(=O)O)c(=O)oc2cc3c(cc12)CCC(C)(C)O3`, the IC50 [7] was > 80 µM (inactive).
In the case of `Cc1c(O)ccc(-c2[nH]ncc2-c2nc3ccccc3s2)c1O`, the IC50 (Leucine aminopeptidase) is reported as 6.97 µM (active).
In the case of `C=CCSc1nnc(NC(=O)c2ccc(Cl)nc2)s1`, the IC50 [10] is reported as > 80 µM (inactive).
In the case of `Cn1c(=O)n(C)c2cc(NS(=O)(=O)c3ccccc3)ccc21`, the IC50 [7] is reported as > 80 µM (inactive).
For `Cc1cc(S(=O)(=O)c2ccc(Cl)cc2)nc(S(=O)(=O)c2ccc(Cl)cc2)c1C#N`, the AC50 [11] was 21.2 µM (active), the IC50 (Fatty acid synthase [12]) was 7.57 µM (active) and the IC50 (Fatty acid synthase [13]) was 10.4 µM (active). For the same compound, the AC50 [14] was 2.83 µM (active), the AC50 (HEK293) was 9.23 µM (active) and the AC50 [15] was 25.9 µM (active).
For `CCn1c2ccccc2c2cc(/C=N/n3cnnc3S)ccc21`, the AC50 (Cytochrome P450 2C9) was 31.6 µM (inconclusive), the CC50 [16] was 25.1 µM (active) and the IC50 [10] was > 80 µM (inactive). For the same compound, the AC50 (HEK293) was 10.7 µM (active).
With `O=C(O)c1cccc(NC(=S)N/N=C/c2c[nH]c3ccccc23)c1` the IC50 (Leucine aminopeptidase) was 17.6 µM (active).
